Tested on: PBMCs
Assay: hGal-7-induced apoptosis of PBMCs, PARP-1 cleavage (Western blot)
Type: cell-based, human
Conditions: increasing hGal-7 pre-incubated with peptide 200 μM, 4 h at 37°C, serum-free, two independent experiments
Protocol: The Jurkat cell line was maintained in RPMI 1640 medium. The culture medium was supplemented with 10% [v/v] fetal bovine serum, 2 mmol/L L-glutamine, 10 mM HEPES buffer, and 1 mM sodium pyruvate. All cell culture products were purchased from Life Technologies (Burlington, ON, Canada). Isolation of peripheral mononuclear cell (PBMCs) was performed as previously described.
For the apoptosis tests, whole-cell extracts were homogenized and resuspended in RIPA buffer (Thermo Fisher Scientific, Rockford, IL, USA) containing protease inhibitors (Roche, Laval, QC, Canada). Equal amounts of whole-cell extracts (25 μg) were separated on SDS-PAGE and transferred onto nitrocellulose membranes (Bio-Rad Laboratories). The membranes were first blocked with 5% milk [w/v] in TBS/0.5% Tween 20 [v/v] for 1 h at room temperature and subsequently blotted overnight in a solution of TBS containing 3% BSA [w/v] and 0.5% Tween 20 [v/v]. The following antibodies were used: a rabbit anti-poly-(ADP-ribose) polymerase (PARP)-1 (p25) polyclonal antibody (1:5000; Epitomics, Burlingame, CA, USA) and a mouse anti-β-actin (1:10000; Sigma-Aldrich, St. Louis, MO, USA). […]
concentrations of recombinant human gaI-7 were pre-incubated with the hGaI-7129–135 (200 μM) prior to its addition to A. Jurkat T cells or B. PBMCs. Apoptosis wa, measured after 4 h at 37°C in serum·free conditions. […]

## H-LDSVRIP-NH2 [hGal-7(129–135), peptide corresponding to hGal-7 segment between residues 129–135]
  inhibition of hGal-7-induced apoptosis in PBMCs (PARP-1 cleavage): also observed using human peripheral blood monocytes
Listed as hGaI-7129–135
  inhibition of hGal-7-induced apoptosis in PBMCs (PARP-1 cleavage): decreases gaI-7-induced apoptosis
